pIC50: −log10 of the molar value.

The pIC50 is the IC50 on a negative log10 scale, so that one unit is a factor of ten.

In this experiment the target is T1, human PPARα (Homo sapiens, UniProt Q07869).
T1 construct: host or cells: proprietary non-human mammalian cells
T1 sequence (Q07869 1-468): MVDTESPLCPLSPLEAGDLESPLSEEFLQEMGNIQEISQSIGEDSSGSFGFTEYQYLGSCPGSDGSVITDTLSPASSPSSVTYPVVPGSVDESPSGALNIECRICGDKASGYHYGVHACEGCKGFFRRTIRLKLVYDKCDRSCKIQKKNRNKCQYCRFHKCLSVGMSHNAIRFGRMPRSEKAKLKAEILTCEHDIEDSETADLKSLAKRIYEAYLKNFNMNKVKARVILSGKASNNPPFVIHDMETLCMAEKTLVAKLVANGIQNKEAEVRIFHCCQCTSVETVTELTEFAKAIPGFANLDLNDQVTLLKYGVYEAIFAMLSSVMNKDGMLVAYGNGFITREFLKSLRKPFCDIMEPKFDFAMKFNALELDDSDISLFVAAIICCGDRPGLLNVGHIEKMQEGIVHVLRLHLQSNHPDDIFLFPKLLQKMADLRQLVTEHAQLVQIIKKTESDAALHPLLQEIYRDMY
As to the kind of experiment: Human PPARα Reporter Assay (luciferase, Indigo Biosciences). It counts as cell-based. Conditions: antagonism; luciferase reporter cells, overnight incubation; read-out: PPARα IC50. Here is the method: Human PPARα Reporter Assay
The screening of test compounds for agonist or antagonist activities against human PPARα receptors was performed using a commercial kit, Human PPARα Reporter Assay System (Indigo Biosciences, Cat. #IB00111).
This nuclear receptor assay system utilizes proprietary non-human mammalian cells engineered to provide constitutive, high-level expression of Human PPARα. Because these cells incorporate a PPARα-responsive luciferase reporter gene, quantifying expressed luciferase activity provides a sensitive surrogate measure of PPARα activity in the treated cells. The primary application of this reporter assay system is in the screening of test samples to quantify any functional activity, either agonist or antagonist, that they may exert against human PPARα.
Briefly, reporter cells are dispensed into wells of the assay plate and then immediately dosed with test compounds. Following an overnight incubation, the treatment media is discarded and Luciferase Detection Reagent (LDR) is added. The intensity of light emission from the ensuing luciferase reaction provides a sensitive measure that is directly proportional to the relative level of PPARα activation in the reporter cells.
For `CC(C)(Oc1ccc(CCCC2=NN(c3ccc(C(F)(F)F)cc3)C(=O)C23CCCC3)cc1)C(=O)NCC(F)(F)F` [Example 27, 2-methyl-2-(4-(3-(4-oxo-3-(4-(trifluoromethyl)phenyl)-2,3-diazaspiro[4,4]non-1-en-1-yl)propyl)phenoxy)-N-(2,2,2-trifluoroethyl)propanamide], the negative logarithm of the IC50 (pIC50) was 6.39. The result for `CC(C)(Oc1ccc(CCCC2=NN(c3ccc(C(F)(F)F)cc3)C(=O)C23CCCC3)cc1)C(=O)NS(=O)(=O)c1ccccc1` [Example 25, 2-methyl-2-(4-(3-(4-oxo-3-(4-(trifluoromethyl)phenyl)-2,3-diazaspiro[4,4]non-1-en-1-yl)propyl)phenoxy)-N-(phenylsulfonyl)propanamide] reads 9.00; that for `CC(C)(Oc1ccc(CCCC2=NN(Cc3ccc(C4CCCCC4)cc3)C(=O)C2(C)C)cc1)C(=O)O` [Example 17, 2-(4-(3-(1-(4-cyclohexylbenzyl)-4,4-dimethyl-5-oxo-4,5-dihydro-1H-pyrazol-3-yl)propyl)phenoxy)-2-methylpropanoic acid], 6.85; that for `CC(C)(CN)Oc1ccc(CCCC2=NN(c3ccc(C(F)(F)F)cc3)C(=O)C23CCCC3)cc1` [Example 45, 4-(3-(4-((1-amino-2-methylpropan-2-yl)oxy)phenyl)propyl)-2-(4-(trifluoromethyl)phenyl)-2,3-diazaspiro[4,4]non-3-en-1-one], 6.08. The result for `CC1(C)C(=O)N(c2ccc(C(F)(F)F)cc2)N=C1CCCc1ccc(OC2(C(=O)O)CCCC2)cc1` [Example 52, 1-(4-(3-(4,4-dimethyl-5-oxo-1-(4-(trifluoromethyl)phenyl)-4,5-dihydro-1H-pyrazol-3-yl)propyl)phenoxy)cyclopentanecarboxylic acid] reads 8.39. Then `CC(C)(Oc1ccc(CCCC2=NN(c3ccc4ccccc4c3)C(=O)C23CCCC3)cc1)C(=O)O` [Example 37, 2-methyl-2-(4-(3-(3-(naphthalen-2-yl)-4-oxo-2,3-diazaspiro[4,4]non-1-en-1-yl)propyl)phenoxy)propanoic acid], with 8.55; and `CC(C)(Oc1ccc(CCCC2=NN(Cc3ccc(C(C)(C)C)cc3)C(=O)C2(C)C)cc1)C(=O)NCc1ccncc1` [Example 5, 2-(4-(3-(1-(4-(tert-butyl)benzyl)-4,4-dimethyl-5-oxo-4,5-dihydro-1H-pyrazol-3-yl)propyl)phenoxy)-2-methyl-N-(pyridin-4-ylmethyl)propanamide], with 6.55.

With `CC(C)(Oc1ccc(CCCC2=NN(Cc3ccc(C(C)(C)C)cc3)C(=O)C2(C)C)cc1)C(=O)NCc1ccccc1` [Example 3, N-benzyl-2-(4-(3-(1-(4-(tert-butyl)benzyl)-4,4-dimethyl-5-oxo-4,5-dihydro-1H-pyrazol-3-yl)propyl)phenoxy)-2-methylpropanamide], the negative-log IC50 (pIC50) is 6.80. Then `CC(C)(Oc1ccc(CCCC2=NN(c3cccc(OC(F)(F)F)c3)C(=O)C23CCCC3)cc1)C(=O)O` [Example 36, 2-methyl-2-(4-(3-(4-oxo-3-(3-(trifluoromethoxy)phenyl)-2,3-diazaspiro[4,4]non-1-en-1-yl)propyl)phenoxy)propanoic acid], with 7.57; and `CC(C)(CNC(=O)c1ccccc1)Oc1ccc(CCCC2=NN(c3ccc(C(F)(F)F)cc3)C(=O)C23CCCC3)cc1` [Example 47, N-(2-methyl-2-(4-(3-(4-oxo-3-(4-(trifluoromethyl)phenyl)-2,3-diazaspiro[4,4]non-1-en-1-yl)propyl)phenoxy)propyl)benzamide], with 6.24. Then `CC(C)(Oc1ccc(CCCC2=NN(Cc3ccc(C(C)(C)C)cc3)C(=O)C2(C)C)cc1)C(=O)NCC1CCCCC1` [Example 6, 2-(4-(3-(1-(4-(tert-butyl)benzyl)-4,4-dimethyl-5-oxo-4,5-dihydro-1H-pyrazol-3-yl)propyl)phenoxy)-N-(cyclohexylmethyl)-2-methylpropanamide], with 6.38.

Consider `CC1(C)C(=O)N(c2ccc(C(F)(F)F)cc2)N=C1CCCc1ccc(OCC(=O)O)cc1` [Example 49, 2-(4-(3-(4,4-dimethyl-5-oxo-1-(4-(trifluoromethyl)phenyl)-4,5-dihydro-1H-pyrazol-3-yl)propyl)phenoxy)acetic acid], for which the pIC50 is 7.27.

Take `CC(C)(Oc1ccc(CCCC2=NN(c3ccc(C(F)(F)F)cc3)C(=O)C2(C)C)cc1)C(=O)O` [Example 19, 2-(4-(3-(4,4-dimethyl-5-oxo-1-(4-(trifluoromethyl)phenyl)-4,5-dihydro-1H-pyrazol-3-yl)propyl)phenoxy)-2-methylpropanoic acid]: the negative-log IC50 (pIC50) was 8.42.

`CC(C)(CNS(=O)(=O)c1ccccc1)Oc1ccc(CCCC2=NN(c3ccc(C(F)(F)F)cc3)C(=O)C23CCCC3)cc1` [Example 46, N-(2-methyl-2-(4-(3-(4-oxo-3-(4-(trifluoromethyl)phenyl)-2,3-diazaspiro[4,4]non-1-en-1-yl)propyl)phenoxy)propyl)benzenesulfonamide]: the negative-log IC50 (pIC50) is 5.89. Turning to `CCOc1ccc(-c2ccc(CCCC3=NN(Cc4ccc(C(C)(C)C)cc4)C(=O)C3(C)C)cc2)cc1CC(=O)O` [Example 55, 2-(4′-(3-(1-(4-(tert-butyl)benzyl)-4,4-dimethyl-5-oxo-4,5-dihydro-1H-pyrazol-3-yl)propyl)-4-ethoxy-[1,1′-biphenyl]-3-yl)acetic acid], the negative logarithm of the IC50 (pIC50) was 6.96. Then `CC(C)(Oc1ccc(CCCC2=NN(c3ccc(C(F)(F)F)cc3)C(=O)C23CCCC3)cc1)C(=O)O` [Example 24, 2-methyl-2-(4-(3-(4-oxo-3-(4-(trifluoromethyl)phenyl)-2,3-diazaspiro[4,4]non-1-en-1-yl)propyl)phenoxy)propanoic acid], with 8.85; and `CC(C)(Oc1ccc(CCCC2=NN(c3ccc(C(C)(C)C)cc3)C(=O)C2(C)C)cc1)C(=O)O` [Example 11, 2-(4-(3-(1-(4-(tert-butyl)phenyl)-4,4-dimethyl-5-oxo-4,5-dihydro-1H-pyrazol-3-yl)propyl)phenoxy)-2-methylpropanoic acid], with 8.09; and `Cc1ccc(N2N=C(CCCc3ccc(OC(C)(C)C(=O)NCC(F)(F)F)cc3)C3(CCCC3)C2=O)cc1C` [Example 33, 2-(4-(3-(3-(3,4-dimethylphenyl)-4-oxo-2,3-diazaspiro[4,4]non-1-en-1-yl)propyl)phenoxy)-2-methyl-N-(2,2,2-trifluoroethyl)propanamide], with 6.30. For `CC1(C)C(=O)N(c2cccc(C(F)(F)F)c2)N=C1CCCc1ccc(OC(C)(C(=O)O)c2ccccc2)cc1` (single isomer, unassigned) [54-enantiomer#1, 2-(4-(3-(4,4-dimethyl-5-oxo-1-(3-(trifluoromethyl)phenyl)-4,5-dihydro-1H-pyrazol-3-yl)propyl)phenoxy)-2-phenylpropanoic acid], the pIC50 was 6.19.

Take `CC(C)(Oc1ccc(CCCC2=NN(Cc3ccc(C(F)(F)F)cc3)C(=O)C23CCCC3)cc1)C(=O)O` [Example 34, 2-methyl-2-(4-(3-(4-oxo-3-(4-(trifluoromethyl)benzyl)-2,3-diazaspiro[4,4]non-1-en-1-yl)propyl)phenoxy)propanoic acid]: the negative-log IC50 (pIC50) is 6.02. On to `CC(C)(Oc1ccc(CCCC2=NN(Cc3ccc(C4CC4)cc3)C(=O)C2(C)C)cc1)C(=O)O` [Example 16, 2-(4-(3-(1-(4-cyclopropylbenzyl)-4,4-dimethyl-5-oxo-4,5-dihydro-1H-pyrazol-3-yl)propyl)phenoxy)-2-methylpropanoic acid], for which the negative logarithm of the IC50 (pIC50) was 6.85.

For the compound `CC(C)(Oc1ccc(CCCC2=NN(Cc3ccc(C(C)(C)C)cc3)C(=O)C2(C)C)cc1)C(=O)NCc1ccccn1` [Example 4, 2-(4-(3-(1-(4-(tert-butyl)benzyl)-4,4-dimethyl-5-oxo-4,5-dihydro-1H-pyrazol-3-yl)propyl)phenoxy)-2-methyl-N-(pyridin-2-ylmethyl)propanamide], the pIC50 is 6.62. As for `Cc1ccc(N2N=C(CCCc3ccc(OC(C)(C)C(=O)O)cc3)C3(CCCC3)C2=O)cc1C(F)(F)F` [Example 39, 2-methyl-2-(4-(3-(3-(4-methyl-3-(trifluoromethyl)phenyl)-4-oxo-2,3-diazaspiro[4,4]non-1-en-1-yl)propyl)phenoxy)propanoic acid], the pIC50 is 8.51.

In the case of `CCCC1(CCC)C(=O)N(c2ccc(C(F)(F)F)cc2)N=C1CCCc1ccc(OC(C)(C)C(=O)O)cc1` [Example 41, 2-methyl-2-(4-(3-(5-oxo-4,4-dipropyl-1-(4-(trifluoromethyl)phenyl)-4,5-dihydro-1H-pyrazol-3-yl)propyl)phenoxy)propanoic acid], the pIC50 was 4.82. Then `CC(C)(Oc1ccc(CCCC2=NN(c3ccc(C(F)(F)F)cc3)C(=O)C2(C)C)cc1)C(=O)NS(=O)(=O)c1ccccc1` [Example 22, 2-(4-(3-(4,4-dimethyl-5-oxo-1-(4-(trifluoromethyl)phenyl)-4,5-dihydro-1H-pyrazol-3-yl)propyl)phenoxy)-2-methyl-N-(phenylsulfonyl)propanamide], with 9.05.
